The record followed here is ChEMBL document CHEMBL5465560, “Selectivity Literature for EUbOPEN Chemogenomic Library” (2024).

By IC50 is commonly meant the point on the concentration scale where inhibition reaches its midpoint. Read a high IC50 as a need for much substance.

The target in test [1] is Ribosomal protein S6 kinase alpha-1 (Homo sapiens, UniProt Q15418). As to conditions: at 10 µM.
The target of test [2] is T1, Protein kinase C iota type (Homo sapiens) (UniProt P41743).
T1 sequence (whole entry): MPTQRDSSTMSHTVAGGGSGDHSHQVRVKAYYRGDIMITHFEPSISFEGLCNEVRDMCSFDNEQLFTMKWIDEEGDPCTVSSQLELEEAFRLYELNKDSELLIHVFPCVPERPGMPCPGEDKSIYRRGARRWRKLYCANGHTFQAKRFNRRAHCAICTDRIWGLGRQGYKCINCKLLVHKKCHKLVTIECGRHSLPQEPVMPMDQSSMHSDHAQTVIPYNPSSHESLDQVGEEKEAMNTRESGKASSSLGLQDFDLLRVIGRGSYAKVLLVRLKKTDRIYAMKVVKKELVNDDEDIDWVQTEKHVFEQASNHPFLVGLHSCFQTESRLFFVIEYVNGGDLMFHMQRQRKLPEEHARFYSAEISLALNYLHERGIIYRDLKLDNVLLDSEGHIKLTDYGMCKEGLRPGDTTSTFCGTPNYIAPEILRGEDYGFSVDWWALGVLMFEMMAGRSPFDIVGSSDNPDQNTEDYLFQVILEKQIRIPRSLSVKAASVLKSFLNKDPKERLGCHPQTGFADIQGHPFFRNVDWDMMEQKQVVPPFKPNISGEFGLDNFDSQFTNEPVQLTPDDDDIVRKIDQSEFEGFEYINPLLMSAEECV
Kind of test: Selectivity interaction (KinomeScan (DiscoverX)) EUB0000229b PRKCI. The conditions noted are these: at 10 µM.

Test [3] addresses T2, Ephrin type-B receptor 3 (Homo sapiens) (UniProt P54753).
T2 sequence (whole entry): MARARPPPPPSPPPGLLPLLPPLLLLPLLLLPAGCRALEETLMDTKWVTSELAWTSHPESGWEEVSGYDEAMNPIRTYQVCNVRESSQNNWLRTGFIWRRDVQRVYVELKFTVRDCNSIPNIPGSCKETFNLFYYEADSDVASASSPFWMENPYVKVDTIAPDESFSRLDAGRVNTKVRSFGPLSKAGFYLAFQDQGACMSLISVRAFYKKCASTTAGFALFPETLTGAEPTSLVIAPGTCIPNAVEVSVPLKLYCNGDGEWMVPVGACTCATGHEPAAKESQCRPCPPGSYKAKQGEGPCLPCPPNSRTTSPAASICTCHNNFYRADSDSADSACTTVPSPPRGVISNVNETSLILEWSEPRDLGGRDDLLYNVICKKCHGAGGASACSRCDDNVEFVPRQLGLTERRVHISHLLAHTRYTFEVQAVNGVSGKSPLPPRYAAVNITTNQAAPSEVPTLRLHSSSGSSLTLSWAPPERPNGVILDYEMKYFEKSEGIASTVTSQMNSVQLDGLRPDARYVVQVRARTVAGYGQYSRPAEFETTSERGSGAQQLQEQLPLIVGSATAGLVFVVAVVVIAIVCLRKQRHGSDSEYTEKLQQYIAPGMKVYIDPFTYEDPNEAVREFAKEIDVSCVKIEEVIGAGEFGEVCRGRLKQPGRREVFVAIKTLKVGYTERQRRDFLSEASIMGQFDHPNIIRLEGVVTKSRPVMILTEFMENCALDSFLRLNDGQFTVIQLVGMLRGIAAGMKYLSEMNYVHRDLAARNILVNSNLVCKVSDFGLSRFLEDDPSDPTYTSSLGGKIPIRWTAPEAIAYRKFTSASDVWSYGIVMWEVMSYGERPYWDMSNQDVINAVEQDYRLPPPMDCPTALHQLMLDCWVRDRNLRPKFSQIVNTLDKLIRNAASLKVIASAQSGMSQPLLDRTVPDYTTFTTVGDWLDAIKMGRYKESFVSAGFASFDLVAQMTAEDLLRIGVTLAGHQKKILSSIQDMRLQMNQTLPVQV
Kind of test: Selectivity interaction (ProQinase) EUB0000171b EPHB3.

In test [4] the target is T3, Phosphatidylinositol 5-phosphate 4-kinase type-2 beta (Homo sapiens) (UniProt P78356).
T3 sequence (whole entry): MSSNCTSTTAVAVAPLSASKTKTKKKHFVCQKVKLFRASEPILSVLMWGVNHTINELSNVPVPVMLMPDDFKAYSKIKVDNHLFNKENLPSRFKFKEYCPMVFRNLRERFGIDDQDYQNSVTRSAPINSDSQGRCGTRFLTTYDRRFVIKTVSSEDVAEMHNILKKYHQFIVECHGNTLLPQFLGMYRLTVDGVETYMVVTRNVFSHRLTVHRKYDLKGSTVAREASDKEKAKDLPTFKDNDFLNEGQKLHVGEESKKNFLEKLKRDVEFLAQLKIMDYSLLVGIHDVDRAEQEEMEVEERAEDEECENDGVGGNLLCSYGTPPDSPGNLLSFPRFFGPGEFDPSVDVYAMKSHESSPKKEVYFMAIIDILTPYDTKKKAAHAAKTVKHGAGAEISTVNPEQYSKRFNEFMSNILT
Kind of test: Selectivity interaction (KinomeScan (DiscoverX)) EUB0000045b PIP4K2B.

Test [5] addresses High affinity nerve growth factor receptor (Homo sapiens, UniProt P04629). In words: Selectivity interaction (Upstate Kinase Profiler service (Millipore)) EUB0000056c NTRK1. As to conditions: at 1 µM.
The target in test [6] is Glycogen synthase kinase-3 beta (Homo sapiens, UniProt P49841). In words: Selectivity interaction (Upstate Kinase Profiler service (Millipore)) EUB0000056c GSK3B. As to conditions: at 1 µM.
Sequence of Glycogen synthase kinase-3 beta (P49841 whole entry, looked up): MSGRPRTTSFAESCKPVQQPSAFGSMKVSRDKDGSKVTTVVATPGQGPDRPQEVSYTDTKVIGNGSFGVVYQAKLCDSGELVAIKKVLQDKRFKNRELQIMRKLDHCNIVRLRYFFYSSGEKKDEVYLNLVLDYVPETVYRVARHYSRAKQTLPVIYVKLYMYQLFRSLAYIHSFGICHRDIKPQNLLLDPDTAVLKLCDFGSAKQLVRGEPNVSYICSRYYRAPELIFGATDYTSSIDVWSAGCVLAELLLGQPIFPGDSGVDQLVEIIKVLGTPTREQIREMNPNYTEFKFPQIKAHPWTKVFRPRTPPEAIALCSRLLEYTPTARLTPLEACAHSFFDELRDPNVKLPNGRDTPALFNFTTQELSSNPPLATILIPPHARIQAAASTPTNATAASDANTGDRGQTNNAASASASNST
Test [7] concerns the target Proto-oncogene tyrosine-protein kinase Src (Homo sapiens, UniProt P12931). Kind of test: Selectivity interaction (Kinase panel (enzymatic assay)) EUB0000595a SRC.

Sequence of Proto-oncogene tyrosine-protein kinase Src (P12931 2-536 limits assumed): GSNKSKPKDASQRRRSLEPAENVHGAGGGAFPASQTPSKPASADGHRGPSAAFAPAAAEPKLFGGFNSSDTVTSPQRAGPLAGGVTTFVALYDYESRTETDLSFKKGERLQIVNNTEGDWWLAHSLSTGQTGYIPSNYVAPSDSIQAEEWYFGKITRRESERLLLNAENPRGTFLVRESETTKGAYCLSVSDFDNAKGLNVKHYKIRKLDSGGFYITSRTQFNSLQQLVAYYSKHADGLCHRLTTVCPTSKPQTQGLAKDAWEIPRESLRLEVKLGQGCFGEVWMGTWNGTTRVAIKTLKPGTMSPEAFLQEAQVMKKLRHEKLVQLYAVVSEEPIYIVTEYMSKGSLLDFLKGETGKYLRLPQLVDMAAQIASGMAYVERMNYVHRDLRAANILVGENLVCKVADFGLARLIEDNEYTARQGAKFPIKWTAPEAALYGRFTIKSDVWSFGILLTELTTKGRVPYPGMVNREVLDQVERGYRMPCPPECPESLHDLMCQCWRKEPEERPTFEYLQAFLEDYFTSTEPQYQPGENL
Sequence of Ribosomal protein S6 kinase alpha-1 (Q15418 whole entry): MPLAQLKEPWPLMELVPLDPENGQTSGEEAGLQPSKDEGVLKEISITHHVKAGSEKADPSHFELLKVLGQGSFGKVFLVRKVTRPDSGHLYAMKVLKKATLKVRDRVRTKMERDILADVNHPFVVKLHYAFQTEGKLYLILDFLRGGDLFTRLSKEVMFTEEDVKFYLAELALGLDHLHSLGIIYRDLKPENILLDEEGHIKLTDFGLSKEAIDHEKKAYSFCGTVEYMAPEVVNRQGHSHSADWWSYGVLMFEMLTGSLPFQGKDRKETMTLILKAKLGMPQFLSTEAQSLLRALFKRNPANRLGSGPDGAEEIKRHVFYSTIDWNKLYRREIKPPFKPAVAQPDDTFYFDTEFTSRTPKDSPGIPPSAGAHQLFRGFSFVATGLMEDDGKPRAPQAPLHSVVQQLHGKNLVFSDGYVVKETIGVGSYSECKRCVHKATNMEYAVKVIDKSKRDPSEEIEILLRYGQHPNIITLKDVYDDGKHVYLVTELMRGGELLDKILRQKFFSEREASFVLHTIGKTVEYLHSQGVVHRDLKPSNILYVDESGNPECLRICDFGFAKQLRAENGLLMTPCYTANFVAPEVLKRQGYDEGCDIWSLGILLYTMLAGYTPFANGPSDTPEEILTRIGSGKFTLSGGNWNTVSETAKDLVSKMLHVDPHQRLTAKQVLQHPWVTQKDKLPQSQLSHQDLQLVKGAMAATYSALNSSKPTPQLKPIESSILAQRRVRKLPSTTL
Sequence of High affinity nerve growth factor receptor (P04629 33-796 limits assumed): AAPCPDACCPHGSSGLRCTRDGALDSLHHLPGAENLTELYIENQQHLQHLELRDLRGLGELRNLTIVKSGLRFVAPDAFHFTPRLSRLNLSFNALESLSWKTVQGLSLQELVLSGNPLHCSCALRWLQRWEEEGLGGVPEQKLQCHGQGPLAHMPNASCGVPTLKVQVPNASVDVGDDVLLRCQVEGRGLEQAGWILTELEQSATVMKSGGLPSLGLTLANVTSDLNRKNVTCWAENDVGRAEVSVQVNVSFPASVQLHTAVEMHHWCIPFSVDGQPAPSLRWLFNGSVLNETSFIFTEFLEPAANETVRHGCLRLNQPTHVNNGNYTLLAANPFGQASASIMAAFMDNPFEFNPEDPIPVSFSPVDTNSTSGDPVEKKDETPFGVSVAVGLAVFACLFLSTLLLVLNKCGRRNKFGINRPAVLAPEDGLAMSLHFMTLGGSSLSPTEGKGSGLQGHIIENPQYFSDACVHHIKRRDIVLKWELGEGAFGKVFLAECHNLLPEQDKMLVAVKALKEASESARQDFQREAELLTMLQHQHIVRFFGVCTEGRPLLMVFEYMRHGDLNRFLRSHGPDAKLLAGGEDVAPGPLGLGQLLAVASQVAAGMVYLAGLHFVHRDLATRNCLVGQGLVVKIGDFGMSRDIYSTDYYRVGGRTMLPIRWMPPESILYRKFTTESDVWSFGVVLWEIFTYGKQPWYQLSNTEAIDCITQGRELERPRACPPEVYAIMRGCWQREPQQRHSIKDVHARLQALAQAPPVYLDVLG

In test [1], `Cc1cc([C@@H](C)Nc2ccccc2C(=O)O)c2nc(N3CCOCC3)cc(=O)n2c1` [AZD-6482] displayed a % of control of 73%.
The compound `COc1cc(N(C)c2ccnc3ccc(C(F)(F)F)cc23)cc(OC)c1OC` had a % binding in test [2] of 82%.
Turning to `C=CC(=O)Nc1cccc(C(=O)Nc2ccc(Nc3cc(-c4[nH]c(SC)nc4C)ccn3)cc2)c1`, the values for the % of control in test [3] (at 1 µM) and in test [3] (at 5 µM) were 106% and 108%, respectively.
Regarding `C=CC(=O)Nc1cc(-n2c(=O)ccc3cnc4ccc(-c5ccc(NS(C)(=O)=O)cc5)cc4c32)ccc1C`, the % of control in test [4] (at 1 µM) worked out at 93%; in test [4] (at 10 µM) it was 63%.
As for `Cc1ccc(-c2ccc3c(ccc4sc5c(c43)NC[C@@H](C)NC5=O)n2)cn1`, the % of inhibition was 3% in test [5] and 11% in test [6].
In test [7], `COCC(=O)NC/C=C/c1ccc2ncnc(Nc3ccc(Oc4ccc(C)nc4)c(C)c3)c2c1` [CP-724714] gave a half-inhibitory concentration (IC50) of over 10 µM.
